According to US4804684A, “Symmetrical O-substituted dioximes of benzo-fused β-diketocyclo-alkylenes, the processes for their preparation and their application as drugs” (Panmedica S.A., priority 1986, dated 1989):

Columns and labels:
[1] = system: platelet-rich human plasma; platelet aggregation induced by ADP; experiment: Platelet aggregation (platelet-rich human plasma) induced in vitro by ADP; assay type: cell-based; conditions: platelet-rich human plasma, 300,000 platelets/cm^2, 2.0 μg/ml of ADP; read-out: IC50, inductor: ADP
Experimental: (§1) Study of the Effects on the Platelet Aggregation (Platelet-Rich Human Plasma) Induced in Vitro By: ADP, Collagen or Arachidonic Acid Blood samples from volunteer donors are treated and adjusted to a platelet concentration of 300,000/cm^2 and then incubated with different concentrations of the test products. Aggregation is induced by 2.0 μg/ml of ADP or by 10.0 μg/ml of collagen. The measurements are made using a Bryston-type aggregometer--or CHRONOLOG. The changes in optical density are noted and the values of the concentrations which cause a 50% inhibition are calculated.

[2] = system: isolated guinea-pig intestine; experiment: Antagonistic effects on isolated guinea-pig intestine (MAGNUS); conditions: 0.1 μg/ml
platelet aggregation = experiment: In vitro inhibition of platelet aggregation (BORN's method), induced by collagen or ADP; assay type: cell-based, animal and human; conditions: 100 μg/ml, aspirin as reference
Experimental: In vitro inhibition of platelet aggregation The inhibition of platelet aggregation is measured in vitro by BORN's method (Nature 4832, 927 (1962)), the aggregation being induced by collagen or ADP. […] The aggregation can also be induced in vitro by serotonin, arachidonic acid and norepinephrine. Furthermore, this inhibitory effect was observed on platelet-rich plasma (PRP) of animal origin and human origin.

[3] = system: platelet-rich human plasma; platelet aggregation induced by collagen; experiment: Platelet aggregation (platelet-rich human plasma) induced in vitro by collagen; assay type: cell-based; conditions: platelet-rich human plasma, 300,000 platelets/cm^2, 10.0 μg/ml of collagen; read-out: IC50, inductor: collagen
Experimental: as §1

Row | SMILES | IC50 [1] [µg/mL] | inhibitory effect on isolated guinea-pig intestine [2] | inhibition of platelet aggregation compared with aspirin (platelet aggregation) | IC50 [3] [µg/mL]
1 | CCN(CC)CCON=C1CC(=NOCCN(CC)CC)c2ccccc2-c2ccccc21.Cl.Cl [Example 15, 5,7-Bis(2-Diethylaminoethoxyimino)-6,7-Dihydro-(5H)-Dibenzo[a,c]Cycloheptene Dihydrochloride] | 10 | still substantial | comparable or even superior to aspirin | 24
2 | CCN(CC)CCON=C1CC(=NOCCN(CC)CC)c2ccccc2-c2ccccc21.O=C(O)/C=C\C(=O)O.O=C(O)/C=C\C(=O)O [Example 16, 5,7-Bis(2-Diethylaminoethoxyimino)-6,7-Dihydro-(5H)-Dibenzo[a,c]Cycloheptene Dimaleate] | 16 | still substantial | comparable or even superior to aspirin | 22
3 | CCN(CC)CCON=C1CC(=NOCCN(CC)CC)c2ccccc2-c2ccccc21.O=C(O)C(O)C(O)C(=O)O.O=C(O)C(O)C(O)C(=O)O [Example 17, 5,7-Bis(2-Diethylaminoethoxyimino)-6,7-Dihydro-(5H)-Dibenzo[a,c]Cycloheptene Ditartrate] | 10 | still substantial | comparable or even superior to aspirin | 16
4 | Cl.Cl.NCCON=C1CC(=NOCCN)c2ccccc2-c2ccccc21 [Example 18, 5,7-Bis(2-Aminoethoxyimino)-6,7-Dihydro-(5H)-Dibenzo[a,c]Cycloheptene Dihydrochloride] | 40 | still substantial | comparable or even superior to aspirin | 50
5 | Cl.Cl.NCCCON=C1CC(=NOCCCN)c2ccccc2-c2ccccc21 [Example 19, 5,7-Bis(3-Aminopropoxyimino)-6,7-Dihydro-(5H)-Dibenzo[a,c]Cycloheptene Dihydrochloride] | 100 | still substantial | comparable or even superior to aspirin | 175
